The record followed here is PubChem BioAssay AID256 (DTP/NCI, 2004).

Values joined by “and” are separate entries in the source; they are usually repeats but may differ in a detail not shown here. Equal values may be shown once. Inconclusive results and toxic doses are left out.

For this assay, the system named is CD2F1 mice, L1210 leukemia ip, survival T/C. The assay can be described thus: NCI In Vivo Anticancer Drug Screen. Data for tumor model L1210 Leukemia (intraperitoneal) in CD2F1 (CDF1) mice. The settings on record: higher = longer survival. The method in brief:
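Transplantable tumor in mice; compound-treated vs vehicle-treated groups. Read-out = treated/control ratio of the measured endpoint.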

The mark [1] stands for this setting: endpoint: mean survival time, dose: 100.0 mg/kg/injection, schedule: Q01DX009 (ip), vehicle: saline with Tween-80.
Setting [2] is: endpoint: mean survival time, dose: 100.0 mg/kg/injection, schedule: Q04DX003 (ip), vehicle: saline with Tween-80.
[3] abbreviates: endpoint: mean survival time, dose: 200.0 mg/kg/injection, schedule: Q01DX009 (ip), vehicle: saline with Tween-80.
Setting [4] is: endpoint: mean survival time, dose: 200.0 mg/kg/injection, schedule: Q04DX003 (ip), vehicle: saline with Tween-80.
The mark [5] stands for this setting: endpoint: mean survival time, dose: 400.0 mg/kg/injection, schedule: Q01DX009 (ip), vehicle: saline with Tween-80.
Where [6] appears, read: endpoint: mean survival time, dose: 400.0 mg/kg/injection, schedule: Q04DX003 (ip), vehicle: saline with Tween-80.
The mark [7] stands for this setting: endpoint: mean survival time, dose: 25.0 mg/kg/injection, schedule: Q01DX009 (ip), vehicle: saline with Tween-80.
[8] abbreviates: endpoint: mean survival time, dose: 25.0 mg/kg/injection, schedule: Q04DX002 (ip), vehicle: saline with Tween-80.
Where [9] appears, read: endpoint: mean survival time, dose: 50.0 mg/kg/injection, schedule: Q01DX009 (ip), vehicle: saline with Tween-80.
[10] abbreviates: endpoint: mean survival time, dose: 50.0 mg/kg/injection, schedule: Q04DX002 (ip), vehicle: saline with Tween-80.
Where [11] appears, read: endpoint: mean survival time, dose: 100.0 mg/kg/injection, schedule: Q04DX002 (ip), vehicle: saline with Tween-80.
The mark [12] stands for this setting: endpoint: mean survival time, dose: 50.0 mg/kg/injection, schedule: Q01DX009 (ip), vehicle: saline.
The mark [13] stands for this setting: endpoint: mean survival time, dose: 75.0 mg/kg/injection, schedule: Q01DX001 (ip), vehicle: saline.
Where [14] appears, read: endpoint: mean survival time, dose: 150.0 mg/kg/injection, schedule: Q01DX001 (ip), vehicle: saline.
Setting [15] is: endpoint: mean survival time, dose: 400.0 mg/kg/injection, schedule: Q01DX001 (ip), vehicle: saline with Tween-80.

Take `O=C(Nc1cccc(Cl)c1)c1ccccc1`: the T/C runs as follows: under setting [1], 103 % of control; under setting [2], 91 % of control; under setting [3], 89 % of control; under setting [4], 110 % of control; under setting [5], 98 % of control; under setting [6], 94 % of control.

With `COc1ccc(NC(=O)Oc2ccc(SC)c(C)c2)cc1`, the T/C is 101 % of control under setting [7]; 100 % of control under setting [8]; 95 % of control under setting [9]; 107 % of control under setting [10]; 89 % of control under setting [1]; 91 % of control and 104 % of control under setting [11]. In addition, where the note is “endpoint: mean survival time, dose: 400.0 mg/kg/injection, schedule: Q04DX002 (ip), vehicle: saline with Tween-80”, the T/C was 91 % of control.

For `CCCCCCC(C)NCC(O)COc1cccc(C)c1` (stereo not given), the T/C was 101 % of control (endpoint: mean survival time, dose: 12.5 mg/kg/injection, schedule: Q04DX002 (ip), vehicle: saline with Tween-80); 96 % of control under setting [8]; 93 % of control under setting [10].

For the compound `Cc1cc([N+](=O)[O-])ccc1P(=O)(O)O`, under setting [12], the T/C is 88 % of control.

`O=[n+]1ccn([O-])c2ccccc21`: the T/C was 111 % of control under setting [11] and 105 % of control (endpoint: mean survival time, dose: 200.0 mg/kg/injection, schedule: Q04DX002 (ip), vehicle: saline with Tween-80).

In the case of `Nc1ccccc1-c1nc2ccncc2[nH]1`, the T/C was 100 % of control under setting [13] and 98 % of control under setting [14].

With `C=CCC(C)(C#N)C1C=CCC1` (stereo not given), the T/C is 105 % of control under setting [1]; 102 % of control under setting [2]; 102 % of control under setting [3]; 100 % of control under setting [4]; 103 % of control under setting [5]; 93 % of control under setting [6].

Take `CC(=O)Oc1c(C)[nH]ccc1=O`: the T/C is, setting by setting: under setting [7], 97 % of control; (endpoint: mean survival time, dose: 25.0 mg/kg/injection, schedule: Q01DX009 (ip), vehicle: saline) 100 % of control; under setting [9], 113 % of control and 107 % of control; under setting [12], 100 % of control; under setting [1], 118 % of control and 122 % of control; (endpoint: mean survival time, dose: 100.0 mg/kg/injection, schedule: Q01DX009 (ip), vehicle: saline) 111 % of control. Further, the T/C reads like this: under setting [3], 150 % of control; (endpoint: mean survival time, dose: 200.0 mg/kg/injection, schedule: Q01DX009 (ip), vehicle: saline) 122 % of control; under setting [5], 157 % of control.

As for `ClC1CCC[N-]C1.ClC1CCC[N-]C1.O=C(O)CC(=O)O.[Pt+2]` (stereo not given), the T/C is 102 % of control (endpoint: mean survival time, dose: 12.5 mg/kg/injection, schedule: Q01DX009 (ip), vehicle: saline with Tween-80); 100 % of control under setting [7]; 104 % of control under setting [9]; 104 % of control under setting [1]; 94 % of control under setting [3].

Take `CCOC(=O)Nc1cc(NC(c2ccccc2)c2ccccc2)c([N+](=O)[O-])c(Cl)n1`: the T/C runs as follows: (endpoint: mean survival time, dose: 100.0 mg/kg/injection, schedule: Q01DX001 (ip), vehicle: carboxymethylcellulose (CMC)) 95 % of control; (endpoint: mean survival time, dose: 200.0 mg/kg/injection, schedule: Q01DX001 (ip), vehicle: carboxymethylcellulose (CMC)) 93 % of control; (endpoint: mean survival time, dose: 400.0 mg/kg/injection, schedule: Q01DX001 (ip), vehicle: carboxymethylcellulose (CMC)) 91 % of control.

As for `Nc1c(/C=C/c2cc3cc(C4=NCCN4)ccc3o2)[nH]c2cc(C3=NCCN3)ccc12`, the T/C was 124 % of control (endpoint: median survival time, dose: 3.12 mg/kg/injection, schedule: Q01DX009 (ip), vehicle: Klucel (hydroxypropylcellulose) (HPC)); 178 % of control (endpoint: median survival time, dose: 18.0 mg/kg/injection, schedule: Q01DX005 (ip), vehicle: Klucel (hydroxypropylcellulose) (HPC)); 160 % of control (endpoint: median survival time, dose: 25.0 mg/kg/injection, schedule: Q01DX005 (ip), vehicle: Klucel (hydroxypropylcellulose) (HPC)); 297 % of control (endpoint: median survival time, dose: 30.0 mg/kg/injection, schedule: Q01DX005 (ip), vehicle: Klucel (hydroxypropylcellulose) (HPC)); 171 % of control and 237 % of control (endpoint: median survival time, dose: 50.0 mg/kg/injection, schedule: Q01DX005 (ip), vehicle: Klucel (hydroxypropylcellulose) (HPC)).

In the case of `C#CCN(Cc1ccc2nc(N)[nH]c(=O)c2c1)c1ccc(C(=O)NC(CCC(=O)O)C(=O)O)cc1` (stereo not given), the T/C runs as follows: (endpoint: median survival time, dose: 7.5 mg/kg/injection, schedule: Q01DX009 (ip), vehicle: sodium bicarbonate) 109 % of control; (endpoint: median survival time, dose: 15.0 mg/kg/injection, schedule: Q01DX009 (ip), vehicle: sodium bicarbonate) 105 % of control and 109 % of control; (endpoint: median survival time, dose: 25.0 mg/kg/injection, schedule: Q01DX005 (ip), vehicle: water) 108 % of control; (endpoint: median survival time, dose: 30.0 mg/kg/injection, schedule: Q01DX009 (ip), vehicle: sodium bicarbonate) 117 % of control and 109 % of control; (endpoint: median survival time, dose: 50.0 mg/kg/injection, schedule: Q01DX005 (ip), vehicle: water) 109 % of control; (endpoint: median survival time, dose: 86.4 mg/kg/injection, schedule: Q01DX005 (ip), vehicle: water) 121 % of control. The T/C is, setting by setting: (endpoint: median survival time, dose: 120.0 mg/kg/injection, schedule: Q01DX009 (ip), vehicle: sodium bicarbonate) 156 % of control and 185 % of control; (endpoint: median survival time, dose: 144.0 mg/kg/injection, schedule: Q01DX005 (ip), vehicle: water) 162 % of control; (endpoint: median survival time, dose: 400.0 mg/kg/injection, schedule: Q01DX005 (ip), vehicle: water) 161 % of control.

For `CCCN(CCC)CCCOC(=O)c1ccc([N+](=O)[O-])cc1`, the T/C was 97 % of control (endpoint: mean survival time, dose: 100.0 mg/kg/injection, schedule: Q04DX003 (ip), vehicle: saline); 92 % of control (endpoint: mean survival time, dose: 200.0 mg/kg/injection, schedule: Q04DX003 (ip), vehicle: saline); 94 % of control (endpoint: mean survival time, dose: 400.0 mg/kg/injection, schedule: Q04DX003 (ip), vehicle: saline).

Take `[N-]=[N+]=NC1CC(n2ccc(N)nc2=O)OC1CO` (stereo not given): the T/C (endpoint: median survival time, dose: 12.5 mg/kg/injection, schedule: Q01DX005 (ip), vehicle: saline) is 113 % of control; the T/C (endpoint: median survival time, dose: 25.0 mg/kg/injection, schedule: Q01DX005 (ip), vehicle: saline) was 109 % of control; the T/C (endpoint: median survival time, dose: 50.0 mg/kg/injection, schedule: Q01DX005 (ip), vehicle: saline) was 98 % of control; the T/C (endpoint: median survival time, dose: 100.0 mg/kg/injection, schedule: Q01DX005 (ip), vehicle: saline) was 107 % of control; the T/C (endpoint: median survival time, dose: 200.0 mg/kg/injection, schedule: Q01DX005 (ip), vehicle: saline) was 103 % of control.

Take `CNC(CCNCCc1ccccc1)CNCCc1ccccc1` (stereo not given): the T/C runs as follows: under setting [13], 97 % of control; under setting [14], 107 % of control.

For `CCO/C=C1\SC(=S)N(C)C1=O`, the T/C is 90 % of control (endpoint: mean survival time, dose: 15.0 mg/kg/injection, schedule: Q01DX009 (ip), vehicle: saline with Tween-80); 87 % of control (endpoint: mean survival time, dose: 30.0 mg/kg/injection, schedule: Q01DX009 (ip), vehicle: saline with Tween-80); 98 % of control (endpoint: mean survival time, dose: 60.0 mg/kg/injection, schedule: Q01DX009 (ip), vehicle: saline with Tween-80).

Regarding `C/C=C(\C)c1cc(=O)c2c(C)cc3c(c2o1)C(=O)c1c(O)c(C2CC(C)(N(C)C)C(OC(C)=O)C(C)O2)cc(C2CC(N(C)C)C(O)C(C)O2)c1C3=O` (stereo not given), the T/C is, setting by setting: (endpoint: mean survival time, dose: 0.15 mg/kg/injection, schedule: Q01DX009 (ip), vehicle: saline) 103 % of control; (endpoint: mean survival time, dose: 0.31 mg/kg/injection, schedule: Q01DX009 (ip), vehicle: saline) 98 % of control; (endpoint: mean survival time, dose: 0.62 mg/kg/injection, schedule: Q01DX009 (ip), vehicle: saline) 115 % of control and 100 % of control; (endpoint: mean survival time, dose: 1.25 mg/kg/injection, schedule: Q01DX009 (ip), vehicle: saline) 106 % of control and 111 % of control; (endpoint: mean survival time, dose: 2.5 mg/kg/injection, schedule: Q01DX009 (ip), vehicle: saline) 105 % of control and 108 % of control; (endpoint: mean survival time, dose: 5.0 mg/kg/injection, schedule: Q01DX009 (ip), vehicle: saline) 115 % of control.

Regarding `Nc1nc2c(ncn2-c2ccc(OCCCc3ccccc3)cc2)c(=O)[nH]1`, the T/C was 88 % of control (endpoint: mean survival time, dose: 200.0 mg/kg/injection, schedule: Q01DX001 (ip), vehicle: saline with Tween-80) and 89 % of control under setting [15].

Consider `CCN(CC)C(=O)c1cc[n+](Cc2ccc(Cl)c(Cl)c2)cc1`, for which the T/C is 102 % of control under setting [9], 105 % of control under setting [1], 100 % of control under setting [2] and 102 % of control under setting [4].

With `O=C(CCCC(Br)c1ccccc1)c1ccccc1` (stereo not given), the T/C is 90 % of control (endpoint: mean survival time, dose: 100.0 mg/kg/injection, schedule: Q01DX001 (ip), vehicle: saline with Tween-80) and 95 % of control under setting [15].
